Measurements reported in patent US20150030540A1 (Eli Lilly and Company, priority 2008, published 2015).
Like-named read-outs stand apart in the source and are kept apart here. One block for each compound: values may come before it.

Key:
Aβ fibrils = target: T1, Aβ fibrils (Homo sapiens, UniProt P05067); settings: read-out: Binding Affinity Ki; cited from earlier work
T1 construct: Aβ monomer

[1] = target: oligomers/polymers (Aβ1-42) (Homo sapiens, UniProt P05067); assay: Biacore assay, Aβ42 oligomers/soluble polymers; type: binding; set-up: key: A “+” sign represents a hit; ++: the increase in “+” signs relates to increasing binding affinity; +++: the increase in “+” signs relates to increasing binding affinity; A “−”sign represents no binding; settings: 10 uM
oligomers/polymers (Aβ1-42), sequence (P05067 672-713 limits assumed): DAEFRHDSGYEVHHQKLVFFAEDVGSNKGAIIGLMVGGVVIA
Experimental: β-Amyloid (Aβ42) Soluble Aggregates (Oligomers/Soluble Polymers). Biotin-LC-Aβ42 was mixed with Aβ42 at a ratio of 3:2. After dissolving in 1% NH4OH and dH2O, the mixture (40 uM concentration) was incubated in 1×PBS (pH 7.4) buffer at RT for 6-hours to form oligomers/soluble polymers. The free monomer of Aβ42 in the sample was removed using a Microcon centrifugal filter tube with a 10 KDa of MW cutoff. The Biotin-LC-Aβ42 oligomers/polymers were immobilized onto SA chip by streptavidin-biotin capture. Screening of Amyloid Binding Compounds with Biacore (Surface Plasmon Resonance Analysis). Aβ42 oligomers/soluble polymers or fibrils were immobilized on Flow Cell 2 (Fc2) or Flow Cell 3 (Fc3) of the Sensor Chip, with Fc1 serving as the control. […] The Flow Cells were then washed with running buffer (1×PBS) for 2 minute, and regenerated with 50 mM of NaOH for 30 seconds. The real time interaction between the screening compound and the amyloid aggregates immobilized on the chip surface was recorded in the sensorgram.

fibrils (Aβ1-42) = fibrils (Aβ1-42) (Homo sapiens, UniProt P05067); assay: Biacore assay, Aβ42 fibrils; type: binding; set-up: key: A “+” sign represents a hit; ++: the increase in “+” signs relates to increasing binding affinity; +++: the increase in “+” signs relates to increasing binding affinity; A “−”sign represents no binding; settings: 10 uM
fibrils (Aβ1-42), sequence (P05067 672-713 limits assumed): as above
Experimental: β-Amyloid (Aβ42) Insoluble Aggregates (Fibrils). Fibrils were prepared according to methods published previously ([…] et al. 2001). Briefly, 0.5 mg of Aβ42 (Biotin-LC-Aβ42:Aβ42=1:1) was dissolved in 1 ml of PBS, pH 7.4, and mixed with a magnetic stir bar for 3 d at 37° C., resulting in a visibly cloudy solution. The fibril pellet was collected by centrifugation. The Biotin-LC-Aβ42 fibrils were immobilized onto SA chip by streptavidin-biotin capture. Screening of Amyloid Binding Compounds with Biacore (Surface Plasmon Resonance Analysis). Aβ42 oligomers/soluble polymers or fibrils were immobilized on Flow Cell 2 (Fc2) or Flow Cell 3 (Fc3) of the Sensor Chip, with Fc1 serving as the control. […] The Flow Cells were then washed with running buffer (1×PBS) for 2 minute, and regenerated with 50 mM of NaOH for 30 seconds. The real time interaction between the screening compound and the amyloid aggregates immobilized on the chip surface was recorded in the sensorgram.

[2] = microPET imaging of AD-CB-001 in rat; type: in vivo, Sprague-Dawley rat; settings: tail vein, 30 min dynamic microPET scan
Experimental: A white Sprague-Dawley rat was injected via tail vein with ˜850 uCi AD-CB-001, formulated in 10% EtOH:water. A dynamic scan was conducted for 30 min on a R4 microPET scanner. The data was reconstructed using 1 min framing.

[3] = Grey to white matter binding, autoradiography of AD patient brain slices; set-up: species or system human
Experimental: A study was conducted to examine the grey to white matter binding ratios for 4 different tracers: CB-001, CB-003, FDDNP and F-PiB (FIG. 7 and FIG. 8 of U.S. Ser. No. 12/372,717). […] After the human brain slices from AD patients were incubated with a given tracer for 30 min, the slices were washed with various EtOH:water solutions in an attempt to optimize the grey to white matter ratios (FIG. 9 of U.S. Ser. No. 12/372,717). The results were surprising and unexpected in view of previous work performed by other researchers. CB-001 has a slightly higher c Log P than FDDNP (3.8 vs 3.4) and would be expected to have poorer washout than FDDNP based on these values. […] More specifically, the white matter binding of FDDNP is several shades darker than CB-001's white matter binding, indicating low non-specific binding of CB-001.

amyloid binding pockets = assay: Blocking of [18F]-CB001 autoradiography staining
MAO-A = target: T2, MAO-A (Homo sapiens, UniProt P21397); assay: MAO inhibition, MAO-A; type: biochemical
T2 sequence (P21397 1-527): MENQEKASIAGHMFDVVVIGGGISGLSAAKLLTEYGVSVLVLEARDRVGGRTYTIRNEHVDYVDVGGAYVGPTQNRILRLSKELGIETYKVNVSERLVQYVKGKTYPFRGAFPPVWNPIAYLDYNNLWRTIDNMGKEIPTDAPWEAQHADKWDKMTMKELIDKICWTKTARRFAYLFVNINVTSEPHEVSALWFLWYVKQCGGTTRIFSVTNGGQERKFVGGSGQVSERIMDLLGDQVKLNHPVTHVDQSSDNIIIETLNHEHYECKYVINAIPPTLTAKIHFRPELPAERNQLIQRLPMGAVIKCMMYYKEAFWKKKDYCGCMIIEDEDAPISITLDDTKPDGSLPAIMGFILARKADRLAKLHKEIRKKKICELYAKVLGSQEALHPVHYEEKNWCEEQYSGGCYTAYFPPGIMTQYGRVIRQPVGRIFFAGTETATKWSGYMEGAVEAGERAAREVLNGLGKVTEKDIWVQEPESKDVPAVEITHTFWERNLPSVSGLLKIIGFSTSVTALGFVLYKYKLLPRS

[4] = background in normal brain; type: binding
Excerpt: (§1) Furthermore, the selectivity can be evaluated in brains containing only Aβ plaques/no tau aggregates, Aβ plaques/and tau aggregates, and control brains. Unfortunately, there are no AD brains with only tau and no Aβ present. By testing radiolabeled tracers in these brain sections, one can more quantitative evaluate the relative binding strength (signal strength) and selectivity of various test compounds as they all contain the same radioactive tracer. For examples, if a test tracer binds only to tau, and not amyloid, it should show no signal in the Aβ plaques only brain sections. If a compound binds only to amyloid, it should show uptake in both types of brains. The difficulty of identifying and further quantifying selective compounds lies in the relative abundance of amyloid vs. tau, which is difficult to measure.

MAO-B = target: T3, MAO-B (Homo sapiens, UniProt P27338); assay: MAO inhibition, MAO-B; type: biochemical
T3 sequence (P27338 1-520): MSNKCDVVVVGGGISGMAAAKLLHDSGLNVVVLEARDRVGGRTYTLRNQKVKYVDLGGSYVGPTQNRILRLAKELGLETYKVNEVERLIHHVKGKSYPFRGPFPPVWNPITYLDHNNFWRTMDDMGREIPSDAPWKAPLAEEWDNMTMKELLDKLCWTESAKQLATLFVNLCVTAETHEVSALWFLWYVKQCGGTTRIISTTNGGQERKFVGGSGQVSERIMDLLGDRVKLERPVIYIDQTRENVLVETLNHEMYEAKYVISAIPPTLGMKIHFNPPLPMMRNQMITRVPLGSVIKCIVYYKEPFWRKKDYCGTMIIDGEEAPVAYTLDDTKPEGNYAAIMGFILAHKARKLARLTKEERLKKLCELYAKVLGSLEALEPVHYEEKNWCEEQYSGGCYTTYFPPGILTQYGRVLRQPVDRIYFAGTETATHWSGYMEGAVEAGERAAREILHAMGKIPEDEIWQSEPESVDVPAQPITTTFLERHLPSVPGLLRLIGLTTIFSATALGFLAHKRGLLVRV

tau/Ab = assay: selectivity (tau/Ab); type: binding
Excerpt: as §1

CNS selectivity panel = CNS selectivity panel (hits); type: binding
[5] = Brain uptake in rats and mice; type: in vivo
[6] = GM Intensity (comp. with W372); type: binding; settings: compared with W372
tau/amyloid = assay: Tx/tau/amyloid correlation; type: binding
Norepinephrine transp. = Norepinephrine transp. (Homo sapiens, UniProt P23975); assay: CNS selectivity panel: Norepinephrine transp.; type: binding; settings: 1 uM
Norepinephrine transp., sequence (P23975 whole entry): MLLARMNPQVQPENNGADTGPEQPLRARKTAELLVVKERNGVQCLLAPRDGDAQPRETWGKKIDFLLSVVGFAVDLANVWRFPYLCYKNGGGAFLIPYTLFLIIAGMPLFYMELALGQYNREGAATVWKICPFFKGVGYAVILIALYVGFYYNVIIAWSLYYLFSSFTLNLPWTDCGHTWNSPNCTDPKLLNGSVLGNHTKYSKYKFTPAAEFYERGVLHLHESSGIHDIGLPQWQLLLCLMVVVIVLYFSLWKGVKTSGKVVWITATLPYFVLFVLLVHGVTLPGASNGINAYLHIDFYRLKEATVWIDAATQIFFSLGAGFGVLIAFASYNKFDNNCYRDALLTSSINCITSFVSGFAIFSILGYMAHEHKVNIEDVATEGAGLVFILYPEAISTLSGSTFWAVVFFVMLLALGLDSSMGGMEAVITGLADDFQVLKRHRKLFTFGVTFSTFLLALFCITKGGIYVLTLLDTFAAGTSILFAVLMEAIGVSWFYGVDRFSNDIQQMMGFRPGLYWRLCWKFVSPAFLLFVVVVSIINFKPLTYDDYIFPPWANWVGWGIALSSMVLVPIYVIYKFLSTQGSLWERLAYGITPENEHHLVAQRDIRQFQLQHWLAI

Serotonin 5-HT2c = target: T4, Serotonin 5-HT2c (Homo sapiens, UniProt P28335); assay: CNS selectivity panel: Serotonin 5-HT2c; type: binding; settings: 1 uM
T4 sequence (P28335 33-458): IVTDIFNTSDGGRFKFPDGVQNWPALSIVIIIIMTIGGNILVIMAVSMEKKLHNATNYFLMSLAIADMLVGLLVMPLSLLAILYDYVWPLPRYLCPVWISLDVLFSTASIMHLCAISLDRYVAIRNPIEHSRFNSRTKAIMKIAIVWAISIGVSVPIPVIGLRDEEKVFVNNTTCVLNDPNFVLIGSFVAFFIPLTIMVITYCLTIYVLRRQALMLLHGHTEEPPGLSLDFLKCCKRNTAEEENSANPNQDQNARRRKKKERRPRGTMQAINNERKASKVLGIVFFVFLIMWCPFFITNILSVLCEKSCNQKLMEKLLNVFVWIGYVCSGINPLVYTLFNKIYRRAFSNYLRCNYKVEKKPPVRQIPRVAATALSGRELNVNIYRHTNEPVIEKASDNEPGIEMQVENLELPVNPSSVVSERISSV

AchE = AchE (Homo sapiens, UniProt P22303); assay: AchE activity (IC50); type: biochemical
AchE, sequence (P22303 32-614): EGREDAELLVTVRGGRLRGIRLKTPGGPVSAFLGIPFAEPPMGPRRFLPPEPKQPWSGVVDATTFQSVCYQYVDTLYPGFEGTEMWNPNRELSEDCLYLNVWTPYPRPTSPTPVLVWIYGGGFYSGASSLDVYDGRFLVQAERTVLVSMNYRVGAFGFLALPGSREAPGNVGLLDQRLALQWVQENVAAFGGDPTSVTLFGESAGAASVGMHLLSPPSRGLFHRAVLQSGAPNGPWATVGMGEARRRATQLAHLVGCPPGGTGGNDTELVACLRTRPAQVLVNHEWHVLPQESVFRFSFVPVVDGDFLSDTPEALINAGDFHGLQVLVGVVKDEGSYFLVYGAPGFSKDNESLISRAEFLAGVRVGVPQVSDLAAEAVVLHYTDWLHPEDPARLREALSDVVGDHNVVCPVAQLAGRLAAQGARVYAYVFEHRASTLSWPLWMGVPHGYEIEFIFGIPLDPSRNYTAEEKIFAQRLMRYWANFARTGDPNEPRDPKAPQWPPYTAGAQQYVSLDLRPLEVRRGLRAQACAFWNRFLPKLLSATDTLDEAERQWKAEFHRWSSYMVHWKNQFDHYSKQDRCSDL

Dopamine transp. = Dopamine transp. (Homo sapiens, UniProt Q01959); assay: CNS selectivity panel: Dopamine transp.; type: binding; settings: 1 uM
Dopamine transp., sequence (Q01959 whole entry): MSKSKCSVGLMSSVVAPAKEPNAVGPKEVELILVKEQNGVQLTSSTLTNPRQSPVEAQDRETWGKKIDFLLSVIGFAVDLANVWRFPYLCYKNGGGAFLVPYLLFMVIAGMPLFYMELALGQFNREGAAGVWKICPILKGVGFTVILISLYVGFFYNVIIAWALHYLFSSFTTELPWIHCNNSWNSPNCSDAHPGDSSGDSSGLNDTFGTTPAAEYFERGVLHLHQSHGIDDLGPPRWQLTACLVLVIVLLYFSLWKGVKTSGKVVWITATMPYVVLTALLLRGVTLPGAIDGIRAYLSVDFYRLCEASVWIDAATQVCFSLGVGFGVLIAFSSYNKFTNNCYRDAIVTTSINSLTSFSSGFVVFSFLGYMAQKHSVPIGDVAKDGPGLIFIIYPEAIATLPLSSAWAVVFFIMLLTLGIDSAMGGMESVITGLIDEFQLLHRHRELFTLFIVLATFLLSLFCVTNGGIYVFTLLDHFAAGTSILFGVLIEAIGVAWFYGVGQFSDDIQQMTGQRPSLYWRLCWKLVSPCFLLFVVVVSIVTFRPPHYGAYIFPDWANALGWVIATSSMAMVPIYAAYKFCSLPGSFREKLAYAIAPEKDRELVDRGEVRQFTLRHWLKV

Monoamine transp. = assay: CNS selectivity panel: Monoamine transp.; type: binding; settings: 1 uM
tau = target: T5, tau (Homo sapiens, UniProt P10636); assay: KD (tau) binding
T5 construct: Native forms of tau (various isoforms, hyperphosphorylated) and amyloid aggregates are present in brain sections and therefore preferred for compound testing
T5 sequence (P10636 623-758 limits assumed): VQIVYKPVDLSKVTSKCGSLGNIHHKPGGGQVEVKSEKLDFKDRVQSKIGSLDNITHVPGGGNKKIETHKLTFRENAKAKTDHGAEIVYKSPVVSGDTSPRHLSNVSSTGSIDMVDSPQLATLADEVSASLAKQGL
Excerpt: (§2) When injected intravenously into mice, the Carbazole based compounds; in particular T807, T805 and T794 have shown excellent brain uptake. These compounds also display high binding affinity to tau fibrils. […] In neuropathological staining, compounds of the present invention stained amyloid plaques and/or tau aggregates.
as §1

Glutamate, NMDA = assay: CNS selectivity panel: Glutamate, NMDA; type: binding; settings: 1 uM
human hepatocytes = assay: Metabolism in human hepatocytes; type: in vitro ADME
[7] = Brain uptake after intravenous injection into mice; type: in vivo; settings: injected intravenously into mice
Excerpt: as §2

T1 sequence (P05067 672-713 limits assumed): as the sequence (P05067 672-713 limits assumed) above

Compound: [11CH3]Nc1ccc(-c2cc3ccc(O)cc3o2)cc1
Ki (Aβ fibrils): 2.8 nM

Binding to oligomers/polymers (Aβ1-42) [1]: +++
Binding to fibrils (Aβ1-42) (fibrils (Aβ1-42)): +
Compound: Oc1ccc2c(c1)[nH]c1ccccc12 [2-Hydroxycarbazole]

non-specific binding propensity ([3]; compared to FDDNP): lower
Grey/white matter binding ratio using harsh FDDNP wash conditions ([3]; harsh FDDNP wash: 70%/90%/70% EtOH:water): Excellent
Grey/white matter binding ratio using mild wash conditions ([3]; mild wash: 30%/40%/20% EtOH:water): Poor
grey to white matter ratio ([3]; original wash, text b480): much better
Compound: FCCOc1ccc2c(c1)[nH]c1ccccc12 [CB-001, 2-(2-fluoroethoxy)-9H-carbazole]
brain entry and washout [2]: entered the rat brain and quickly washed out

Compound: CC(=C(C#N)C#N)c1ccc2cc(N(C)CCF)ccc2c1 [FDDNP]
blocking of [18F]-CB001 staining (amyloid binding pockets): much less capable of blocking

Compound: CNc1ccc(-c2nc3ccc(O)cc3s2)cc1 [PiB]
blocking of [18F]-CB001 staining (amyloid binding pockets): blocks [18F]-CB001 staining with increasing concentrations

Compound: Cc1cnc2c(c1)[nH]c1cc(OCCF)ccc12 [T703, 7-(2-fluoroethoxy)-3-methyl-5H-pyrido[3,2-b]indole]
inhibition at 1 µM (MAO-A): 16%
background (normal brain 32566) PSL/mm2 [4]: 15 PSL/mm2
inhibition at 1 µM (MAO-B): 0%
selectivity (tau/Ab) (tau/Ab): 16x
CNS selectivity panel (targets named) (CNS selectivity panel): NET, σl
Brain uptake [5]: Yes
GM Intensity (comp. with W372) [6]: 6%

Compound: FCCCc1ccc2c(c1)[nH]c1ccncc12 [T794, 7-(3-Fluoropropyl)-5H-pyrido[4,3-b]indole]
Tx/tau/amyloid correlation (tau/amyloid): yes
inhibition at 1 µM (MAO-A): 19%
background (normal brain 32566) PSL/mm2 [4]: 97 PSL/mm2
inhibition at 1 µM (MAO-B): 0%
CNS selectivity panel: Norepinephrine transp. (Norepinephrine transp.): transp.(49%)
CNS selectivity panel: Serotonin 5-HT2c (Serotonin 5-HT2c): (33%)
selectivity (tau/Ab) (tau/Ab): 17x
IC50 (AchE): 5000 nM
CNS selectivity panel: Dopamine transp. (Dopamine transp.): transp.(34%)
CNS selectivity panel: Monoamine transp. (Monoamine transp.): transp. (41%)
Kd (tau; FIG. 2 legend, [18F] tracer, read-out: KD): 30 nM
CNS selectivity panel: Glutamate, NMDA (Glutamate, NMDA): (44%) Monoamine
human hepatocytes (metabolic stability) (human hepatocytes): stable
Brain uptake [5]: yes (4 rats, 4 mice)
Brain uptake [7]: excellent
GM Intensity (comp. with W372) [6]: 14%

Compound: FCCc1ccc2c(c1)[nH]c1ccncc12 [T805, 7-(2-Fluoroethyl)-5H-pyrido[4,3-b]indole]
inhibition at 1 µM (MAO-A): 0%
background (normal brain 32566) PSL/mm2 [4]: 49 PSL/mm2
inhibition at 1 µM (MAO-B): 0%
selectivity (tau/Ab) (tau/Ab): 14x
AchE activity, effect at 10 uM (AchE; at 10 uM): <50% at 10 uM
Kd (tau; read-out: KD (tau)): 32 nM
Brain uptake [5]: yes (2 rats, 2 mice)
Brain uptake [7]: excellent
GM Intensity (comp. with W372) [6]: 8%

Compound: Fc1ccc(-c2ccc3c(c2)[nH]c2ccncc23)cn1 [T807, 7-(6-Fluoropyridine-3-yl)-5H-pyrido[4,3-b]indole]
Tx/tau/amyloid correlation (tau/amyloid): yes
inhibition at 1 µM (MAO-A): 0%
background (normal brain 32566) PSL/mm2 [4]: 61 PSL/mm2
inhibition at 1 µM (MAO-B): 0%
selectivity (tau/Ab) (tau/Ab): 29x
IC50 (AchE): 6000 nM
Kd (tau; read-out: KD (tau)): 15 nM
human hepatocytes (metabolic stability) (human hepatocytes): somewhat stable
Brain uptake [5]: yes (3 rats, 3 mice)
Brain uptake [7]: excellent
GM Intensity (comp. with W372) [6]: 28%

Compound: Harmol
Binding to oligomers/polymers (Aβ1-42) [1]: ++
Binding to fibrils (Aβ1-42) (fibrils (Aβ1-42)): +
